# Measurements from ChEMBL document CHEMBL1201862, “PubChem BioAssay data set” (2004).
#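 These data come from cells grown in 96-well plates and exposed to compound for 48 hours at five concentrations. At the GI50, growth is halved.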 The source made the active and inactive calls. No stated cut-off is given here; in the data, active = GI50 up to about 1.1 µM and inactive = higher.
# How the values were obtained:
# Assay in all cases: DTP human tumour cell line panel, 48 h
# 786-0 = tested on: 786-0
# MCF7 = tested on: MCF7
# HL-60 = tested on: HL-60
# RPMI-8226 = tested on: RPMI-8226
# Malme-3M = tested on: Malme-3M
# Hs-578T = tested on: Hs-578T
# NCI-H522 = tested on: NCI-H522
# HCT-15 = tested on: HCT-15
# SK-MEL-28 = tested on: SK-MEL-28
# M14 = tested on: M14
# HT-29 = tested on: HT-29
# A549 = tested on: A549
# HCT-116 = tested on: HCT-116
# HOP-62 = tested on: HOP-62
# TK-10 = tested on: TK-10
# OVCAR-3 = tested on: OVCAR-3
# SK-OV-3 = tested on: SK-OV-3
# HOP-92 = tested on: HOP-92
# SR = tested on: SR
# LOX IMVI = tested on: LOX IMVI
# SK-MEL-2 = tested on: SK-MEL-2
# UO-31 = tested on: UO-31
# BT-549 = tested on: BT-549
# PC-3 = tested on: PC-3
# UACC-62 = tested on: UACC-62
# COLO 205 = tested on: COLO 205
# U-251 = tested on: U-251
# SF-295 = tested on: SF-295
# SN12C = tested on: SN12C
# DU-145 = tested on: DU-145
# T47D = tested on: T47D
# MOLT-4 = tested on: MOLT-4
# KM12 = tested on: KM12
# UACC-257 = tested on: UACC-257
# NCI-H226 = tested on: NCI-H226
# NCI-H460 = tested on: NCI-H460
# HCC 2998 = tested on: HCC 2998
# CCRF-CEM = tested on: CCRF-CEM
# NCI-H23 = tested on: NCI-H23
# SF-539 = tested on: SF-539
# ACHN = tested on: ACHN
# OVCAR-8 = tested on: OVCAR-8
# MDA-MB-231 = tested on: MDA-MB-231
# MDA-MB-435 = tested on: MDA-MB-435
# SNB-19 = tested on: SNB-19
# EKVX = tested on: EKVX
# NCI/ADR-RES = tested on: NCI/ADR-RES
# SF-268 = tested on: SF-268
# CAKI-1 = tested on: CAKI-1
# RXF 393 = tested on: RXF 393
# K562 = tested on: K562
# SW-620 = tested on: SW-620
# MDA-N = tested on: MDA-N
# OVCAR-4 = tested on: OVCAR-4
# SK-MEL-5 = tested on: SK-MEL-5
# OVCAR-5 = tested on: OVCAR-5
# IGROV-1 = tested on: IGROV-1
# SNB-75 = tested on: SNB-75
compound,measurement,setting,value
CCOc1ccc2c(c1)c(CC(=O)O)cn2C,GI50,786-0,> 100 µM (inactive)
same,GI50,MCF7,> 100 µM (inactive)
same,GI50,HL-60,> 100 µM (inactive)
same,GI50,RPMI-8226,> 100 µM (inactive)
same,GI50,Malme-3M,> 100 µM (inactive)
same,GI50,Hs-578T,> 100 µM (inactive)
same,GI50,NCI-H522,> 100 µM (inactive)
same,GI50,HCT-15,> 100 µM
same,GI50,SK-MEL-28,> 100 µM (inactive)
same,GI50,M14,> 100 µM (inactive)
same,GI50,HT-29,> 100 µM (inactive)
same,GI50,A549,> 100 µM (inactive)
same,GI50,HCT-116,> 100 µM (inactive)
same,GI50,HOP-62,> 100 µM (inactive)
same,GI50,TK-10,> 100 µM (inactive)
same,GI50,OVCAR-3,> 100 µM (inactive)
same,GI50,SK-OV-3,> 100 µM (inactive)
same,GI50,HOP-92,45.6 µM (inactive)
same,GI50,SR,> 100 µM (inactive)
same,GI50,LOX IMVI,> 100 µM (inactive)
same,GI50,SK-MEL-2,> 100 µM (inactive)
same,GI50,UO-31,> 100 µM (inactive)
same,GI50,BT-549,> 100 µM (inactive)
same,GI50,PC-3,> 100 µM (inactive)
same,GI50,UACC-62,> 100 µM (inactive)
same,GI50,COLO 205,> 100 µM (inactive)
same,GI50,U-251,> 100 µM (inactive)
same,GI50,SF-295,> 100 µM (inactive)
same,GI50,SN12C,> 100 µM (inactive)
same,GI50,DU-145,> 100 µM (inactive)
same,GI50,T47D,> 100 µM (inactive)
same,GI50,MOLT-4,> 100 µM (inactive)
same,GI50,KM12,> 100 µM (inactive)
same,GI50,UACC-257,> 100 µM (inactive)
same,GI50,NCI-H226,> 100 µM (inactive)
same,GI50,NCI-H460,> 100 µM (inactive)
same,GI50,HCC 2998,> 100 µM (inactive)
same,GI50,CCRF-CEM,> 100 µM (inactive)
same,GI50,NCI-H23,> 100 µM (inactive)
same,GI50,SF-539,> 100 µM (inactive)
same,GI50,ACHN,> 100 µM (inactive)
same,GI50,OVCAR-8,> 100 µM (inactive)
same,GI50,MDA-MB-231,> 100 µM (inactive)
same,GI50,MDA-MB-435,> 100 µM (inactive)
same,GI50,SNB-19,> 100 µM (inactive)
same,GI50,EKVX,> 100 µM (inactive)
same,GI50,NCI/ADR-RES,> 100 µM (inactive)
same,GI50,SF-268,> 100 µM (inactive)
same,GI50,CAKI-1,> 100 µM (inactive)
same,GI50,RXF 393,> 100 µM (inactive)
same,GI50,K562,> 100 µM (inactive)
Cc1nc2c(cc1C(=O)NN)c(=O)n(C)c(=O)n2C,GI50,786-0,> 100 µM (inactive)
same,GI50,SW-620,> 100 µM (inactive)
same,GI50,MCF7,> 100 µM (inactive)
same,GI50,RPMI-8226,> 100 µM (inactive)
same,GI50,HCT-15,> 100 µM
same,GI50,MDA-N,> 100 µM (inactive)
same,GI50,SK-MEL-28,> 100 µM (inactive)
same,GI50,M14,> 100 µM (inactive)
same,GI50,HT-29,> 100 µM (inactive)
same,GI50,A549,> 100 µM (inactive)
same,GI50,HCT-116,> 100 µM (inactive)
same,GI50,HOP-62,> 100 µM (inactive)
same,GI50,TK-10,> 100 µM (inactive)
same,GI50,OVCAR-3,> 100 µM (inactive)
same,GI50,SK-OV-3,> 100 µM (inactive)
same,GI50,OVCAR-4,> 100 µM (inactive)
same,GI50,SK-MEL-2,> 100 µM (inactive)
same,GI50,UO-31,> 100 µM (inactive)
same,GI50,BT-549,> 100 µM (inactive)
same,GI50,PC-3,> 100 µM (inactive)
same,GI50,UACC-62,> 100 µM (inactive)
same,GI50,COLO 205,> 100 µM (inactive)
same,GI50,U-251,> 100 µM (inactive)
same,GI50,SF-295,> 100 µM (inactive)
same,GI50,SN12C,> 100 µM (inactive)
same,GI50,DU-145,> 100 µM (inactive)
same,GI50,T47D,> 100 µM (inactive)
same,GI50,MOLT-4,> 100 µM (inactive)
same,GI50,KM12,> 100 µM (inactive)
same,GI50,UACC-257,> 100 µM (inactive)
same,GI50,NCI-H226,> 100 µM (inactive)
same,GI50,NCI-H460,> 100 µM (inactive)
same,GI50,HCC 2998,> 100 µM (inactive)
same,GI50,CCRF-CEM,> 100 µM (inactive)
same,GI50,SK-MEL-5,> 100 µM (inactive)
same,GI50,OVCAR-5,> 100 µM (inactive)
same,GI50,NCI-H23,> 100 µM (inactive)
same,GI50,IGROV-1,> 100 µM (inactive)
same,GI50,ACHN,> 100 µM (inactive)
same,GI50,OVCAR-8,> 100 µM (inactive)
same,GI50,MDA-MB-231,> 100 µM (inactive)
same,GI50,SNB-75,> 100 µM (inactive)
same,GI50,MDA-MB-435,> 100 µM (inactive)
same,GI50,SNB-19,> 100 µM (inactive)
same,GI50,EKVX,> 100 µM (inactive)
same,GI50,NCI/ADR-RES,> 100 µM (inactive)
same,GI50,CAKI-1,> 100 µM (inactive)
same,GI50,RXF 393,> 100 µM (inactive)
same,GI50,K562,> 100 µM (inactive)
